# Assay results from patent US12171768B2, “IRAK4 degraders and uses thereof” (priority 2021, dated 2024).
# Entries after “also recorded” stand apart in the source; their conditions may differ.
# Key:
# [1] = Phase 1 SAD plasma pharmacokinetics; format: in vivo, human; conditions: for Tmax: healthy volunteers
# From the text: Initially, a dose range of Compound A in single ascending dose (SAD) escalation cohorts will be explored in adult HVs (Part A). […] Safety and PK data from at least 3 completed SAD cohorts will determine initiation of and appropriate doses for the 14-day multiple ascending dose (MAD) portion of the study (Part B).
# The graphical assessment of dose proportionality will be performed for AUC and Cmax. Relative bioavailability of food effect will be assessed based on AUC and Cmax.
# [2] = Plasma protein binding; format: in vitro ADME; conditions: across nonclinical species and humans
# [3] = Phase 1 SAD safety and tolerability; format: in vivo, human
# Method: The safety data up to 24-hours post-dose for these sentinel HVs will be reviewed by the Investigator to ensure acceptable tolerability before commencing administration of the investigational product to the remaining HVs in the cohort. Sequential dosing of HVs within a cohort will be staggered so that there will be at least a gap of 10 minutes between dosing of individual HVs. After the completion of each dose level, the blinded interim PK data through Day 5 and safety data through Day 14 will be reviewed by the SRC before proceeding to the next dose level. Each subsequent dose administration will be performed, if in the judgment of the Investigator and Safety Physician, the results of the safety analyses of the preceding dose administration are satisfactory.
# All data will be fully listed.
# [4] = tested on: ex vivo proinflammatory cytokine induction by R848 and LPS in whole blood; test: Phase 1 MAD ex vivo proinflammatory cytokine induction by R848 and LPS in whole blood; parameters: species or system human; conditions: Day 7-14, daily up to about 200 mg
# From the text: In some embodiments, the cytokines include IFN-γ, IL-12, IL-1β, IL-10, IL-6, TNF-α, IL-8, IL-17, and IL-23.
# [5] = target: T1, breast cancer resistance protein (BCRP) (Homo sapiens, UniProt Q9UNQ0); test: BCRP substrate and efflux inhibition in vitro; format: in vitro ADME
# T1 sequence (Q9UNQ0 1-655): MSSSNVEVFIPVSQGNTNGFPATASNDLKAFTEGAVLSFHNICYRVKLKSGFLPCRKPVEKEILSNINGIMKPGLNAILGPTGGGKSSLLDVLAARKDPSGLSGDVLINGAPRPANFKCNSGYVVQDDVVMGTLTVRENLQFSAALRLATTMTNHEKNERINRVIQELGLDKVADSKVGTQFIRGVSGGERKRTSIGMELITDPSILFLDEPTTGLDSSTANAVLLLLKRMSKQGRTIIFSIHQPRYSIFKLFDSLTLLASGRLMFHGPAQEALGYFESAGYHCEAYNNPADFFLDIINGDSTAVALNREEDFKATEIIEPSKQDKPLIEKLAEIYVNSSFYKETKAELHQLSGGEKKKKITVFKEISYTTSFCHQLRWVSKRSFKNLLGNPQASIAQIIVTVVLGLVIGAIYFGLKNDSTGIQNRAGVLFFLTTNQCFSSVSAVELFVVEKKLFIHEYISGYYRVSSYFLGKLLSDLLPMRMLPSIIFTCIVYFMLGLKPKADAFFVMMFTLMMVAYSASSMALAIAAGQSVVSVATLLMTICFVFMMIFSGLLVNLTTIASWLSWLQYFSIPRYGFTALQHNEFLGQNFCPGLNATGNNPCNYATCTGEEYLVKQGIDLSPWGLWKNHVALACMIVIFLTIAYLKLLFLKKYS
# [6] = blinded SAD safety, per Investigator assessment
compound,measurement,setting,value
"Cn1c(=O)n([C@@H]2CCC(=O)NC2=O)c2cccc(C#CCOC3CCN(C[C@H]4CC[C@H](n5cc(NC(=O)c6cnn7ccc(N8C[C@H]9C[C@@H]8CO9)nc67)c(C(F)F)n5)CC4)CC3)c21 [Compound A, 5-((1R,4R)-2-oxa-5-azabicyclo[2.2.1]heptan-5-yl)-N-(3-(difluoromethyl)-1-((1r,4R)-4-((4-((3-(1-(2,6-dioxopiperidin-3-yl)-3-methyl-2-oxo-2,3-dihydro-1H-benzo[d]imidazol-4-yl)prop-2-yn-1-yl)oxy)piperidin-1-yl)methyl)cyclohexyl)-1H-pyrazol-4-yl)pyrazolo[1,5-a]pyrimidine-3-carboxamide]",Dose-dependent plasma exposures,[1]; SAD,plateaued after 1000 mg
same,half-life,"[1]; human, plasma, oral, after single dosing, across SAD cohorts",25 to 40 h
same,Tmax,"[1]; human, plasma, SAD 1, single oral dose 25 mg",8 h
same,Tmax,"[1]; human, plasma, SAD 2, single oral dose 75 mg",7 h
same,Tmax,"[1]; human, plasma, SAD 3, single oral dose 150 mg",9 h
same,Tmax,"[1]; human, plasma, SAD 4, single oral dose 300 mg",8 h
same,Tmax,"[1]; human, plasma, SAD 6, single oral dose 1000 mg",20 h
same,Plasma protein binding,[2],highly bound
same,ECG changes,[3]; SAD,No significant ECG changes
same,QTcF prolongation,[3]; SAD,no clinically significant QTcF prolongation
same,Serious adverse events,[3]; SAD,no serious adverse events; also recorded: No SAEs
same,AST elevation,"[3]; SAD 5, n=1, resolution ~Day 21",3.8 × ULN
same,ALT elevation,"[3]; SAD 5, n=1, slow resolution to baseline",2.5 × ULN
same,"Study treatment related AEs, Abdominal pain, #AEs",[3]; [6],1
same,"Study treatment related AEs, Diarrhea, #AEs",[3]; [6],2
same,"Study treatment related AEs, Diarrhea, (subjects)",[3]; [6],(2)
same,"Study treatment related AEs, Headache, #AEs",[3]; [6],5
same,"Study treatment related AEs, Headache, (subjects)",[3]; [6],(4)
same,"Study treatment related AEs, Muscle weakness, #AEs",[3]; [6],1
same,"Study treatment related AEs, Myalgia, #AEs",[3]; [6],1
same,"Study treatment related AEs, Nausea, #AEs",[3]; [6],3
same,"Study treatment related AEs, Nausea, (subjects)",[3]; [6],(3)
same,"Study treatment related AEs, Palpitations, #AEs",[3]; [6],1
same,"Study treatment related AEs, Vomiting, #AEs",[3]; [6],2
same,"Study treatment related AEs, Vomiting, (subjects)",[3]; [6],(1)
same,Safety and tolerability,"[3]; single doses, SAD",safe and well-tolerated
same,Inhibition of IFN-γ in whole blood,[4],up to 85%
same,BCRP efflux inhibition,[5],inhibited BCRP efflux
same,BCRP substrate,[5],substrate
